Tested on: Arabidopsis etiolated seedlings
Experiment: Ethylene response of etiolated seedlings grown on AT plates versus AT plus ACC (root length inhibition)
Format: in vivo, Arabidopsis thaliana
Conditions: 10 uM ACC, 5 days
Method: (§1) Phenotypes of 5-day-old etiolated seedlings grown on AT plates in the absence or presence of 10 uM ACC. Data are presented in tabular (A) and graph (B) forms. Ethylene response of 5-day-old etiolated seedlings of WS, Col and two independent quadruple mutant isolates was quantified. Root and hypocotyl lengths of seedlings grown on AT plates versus AT plus 10 uM ACC were measured. Each data point represents the average organ length of 50 or more seedlings plus/minus standard deviation. Fold inhibition was calculated as the ratio of the average organ length in air to that in ACC.
To overcome the redundancy problem, crosses were performed between the mutants in different EDF genes to construct double, triple and quadruple mutant combinations. Mutant genotypes were assayed by PCR. […] Importantly, the observed ethylene insensitivity was more dramatic in the quadruple mutant combinations that involved the strong edf1-1 allele (i.e. edf1-1 edf2-1 edf3-1 edf4-1 and edf1-1 edf2-2 edf3-1 edf4-1), compared to those that included the edf1-2 allele (edf1-2 edf2-1 edf3-1 edf4-1 and edf1-2 edf2-2 edf3-1 edf4-1). The weaker phenotype of the latter quadruple mutant combinations is consistent with the leaky expression of EDF1 in the edf1-2 mutant.
as §1, with “were measured. […] Fold inhibition” for “were measured. Each data point represents the average organ length of 50 or more seedlings plus/minus standard deviation. Fold inhibition”, “in ACC. Similar, yet less dramatic, differences were detected when the hypocotyls of the quadruple and wild-type seedlings were measured.” for “in ACC.”
Arabidopsis thaliana accession Columbia-0 was used for all overexpression studies. […] After 3–4 days in the light at 4 degrees C., the plates were wrapped in foil and kept in a 24 C incubator, after which the phenotypes of seedlings were analyzed. […]

NC1(C(=O)O)CC1 [ACC, 1-aminocyclopropane-1-carboxylic acid]
root length inhibition (fold; ratio of average organ length in air to that in ACC) (Columbia wild-type seedlings): 9.5 fold | root length inhibition (fold; ratio of average organ length in air to that in ACC) (WS wild-type seedlings): 12 fold | root length inhibition (fold; ratio of average organ length in air to that in ACC) (quadruple mutant edf1-1 edf2-1 edf3-1 edf4-1 seedlings): less than 7 fold

— US7169972B2, “Methods and compositions to modulate ethylene sensitivity” (The Salk Institute for Biological Studies, priority 2001, dated 2007)
